In test [1] the target is T1, adiponectin receptor ADIPOR1 (Homo sapiens, UniProt Q96A54).
T1 construct: Flag tag (N); made in house; host or cells: SF9 insect cells (baculovirus, pFASTbac1)
The test can be described thus: Kd (uM). The source says:
Table printed on a drawing sheet, FIG. 1
Head of the field: Kd (uM)
Where the first naming reader finds the target: description_of_the_figure: dissociation constant values of synthetic peptides (3 peptides from 3rd round, 4 peptides from 4th round) from the adiponectin receptor ADIPOR1

Test [2] deals with T2, adiponectin receptor 1 (ADIPOR1) (Homo sapiens, UniProt Q96A54).
T2 construct: Flag tag (N); made in house; host or cells: SF9 insect cells (baculovirus, pFASTbac1)
T2 sequence (Q96A54 89-375): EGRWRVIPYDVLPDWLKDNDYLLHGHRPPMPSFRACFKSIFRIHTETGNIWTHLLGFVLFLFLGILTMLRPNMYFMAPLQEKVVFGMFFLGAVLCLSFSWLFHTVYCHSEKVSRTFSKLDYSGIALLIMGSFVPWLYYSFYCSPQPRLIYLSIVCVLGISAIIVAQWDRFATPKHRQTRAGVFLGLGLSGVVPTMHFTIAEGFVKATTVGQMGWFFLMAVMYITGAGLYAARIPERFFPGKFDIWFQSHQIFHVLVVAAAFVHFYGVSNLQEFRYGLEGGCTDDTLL
The test is described as follows: Surface plasmon resonance (SPR) binding of peptide to immobilized recombinant ADIPOR1. The settings on record: ADIPOR1 amine-coupled to CM5 chip, running buffer pH 7.4, read-out: dissociation constant (Kd) from ADIPOR1. The source says:
The ADIPOR1 protein sequence used was the same as that used for the ADIPOR1 structure analysis, in which 88 amino acids at the N-terminal have been removed. The gene capable of producing the protein sequence was synthesized by codon optimization (IDT). At the time, a BamHI restriction enzyme site, a Flag tag and a TEV protease recognition sequence (ENLYFQG; SEQ ID NO: 11) were inserted at the 5′ end and an EcoRI restriction enzyme site was inserted at the 3′ end in order to facilitate cloning and purify the expressed protein. The obtained gene was inserted into the pFASTbac1 vector required for baculovirus production to perform cloning. The cloned vector was transfected into DH10 bac (Invitrogen) to obtain a bacmid comprising the ADIPOR1 gene through recombination. In order to produce baculovirus, the obtained bacmid was transfected into SF9 cells (5×10^4 cells) using Transfectine (Qiagen), and the baculovirus secreted in a medium was collected after 5 days. Then, a large amount of baculovirus was produced through amplification. The obtained baculovirus was inoculated into SF9 cells (5×10^6 cells/ml) cultured in a 1 L SFM900 medium, and protein was expressed at a temperature of 27° C. for 3 days. The SF9 cells expressing recombinant ADIPOR1 were obtained through centrifugation. The obtained cell pellets were aliquoted and stored at −80° C., and used in protein purification as needed to minimize the disadvantages of membrane proteins, which have the possibility of inactivation due to storage after purification. The ADIPOR1, which is a membrane protein expressed on a cell membrane, was solubilized using a detergent (1% DDM) for purification. The dissolved sample was reacted with anti-Flag antibody bead (Sigma) for 1 hour in ice. Then, ADIPOR1 bound to the anti-Flag antibody bead was eluted with Flag peptide. The primarily purified ADIPOR1 was subjected to size exclusion chromatography (Supderdex200, GE healthcare) to obtain only monomeric, proteins. […]
In order to analyze the binding force between peptide and ADIPOR1, a purified recombinant ADIPOR1 (A88) was bound to a CM5 chip with 3000 RU or higher through amine coupling. […] The affinity value was calculated using the affinity fitting or kinetics fitting method. […] The peptide concentrations were calculated by measuring the […] and A280 absorbance of each peptide.
With reference to FIGS. 3 and 4, surface plasmon resonance (SPR) experiments were performed in the present invention to measure the dissociation constant between the agonist peptide and the adiponectin receptor, particularly adiponectin receptor 1 (ADIPOR1). First, an expressed and purified adiponectin receptor ADIPOR1 was immobilized and its dissociation constant from candidate peptides was measured over a total of 4 rounds.

Test [3] relates to AMPK phosphorylation in HepG2 cell line. The test is described as follows: Western blotting of AMPK phosphorylation in HepG2 cell line. The test is classed as cell-based. The settings on record: HepG2, 5 h starvation, 30 min treatment; tested at 20, 4 and 0.8 uM. On the procedure:
(§1) C2C12 and HepG2 cells were purchased from ATCC. Before use, they were cultured in a DMEM (Hyclone) medium supplemented with 10% FBS (Hyclone) and 1% penicillin/streptomycin in an incubator at 37° C. in a 5% CO2 environment.
(§2) Based on the prior finding, after optimization of the number of the cells to be used for experiment, HepG2 was starved for 5 hours, recovered, and treated with peptide for 30 minutes, and C2C12 was starved for 24 hours and treated with peptide for 10 minutes. The treated cell samples were washed once with cold PBS and lysed for 15 minutes with a RiPA buffer containing a protease inhibitor and a phosphatase inhibitor. After 15 minutes, centrifugation was carried out at 14000 rpm for 5 minutes to collect only proteins. After quantification, 4× sample buffer and 2-ME were added to prepare a sample for western blotting. The western blotting was performed using a conventional western blotting technique. The antibodies of AMPK, p-AMPK, p-AKT, p-ACC and GAPDH were diluted to 1:1000 or 1:2000 depending on the type thereof and imaging was performed with a LAS-4000 instrument.
HepG2 cell line was plated on a 12-well plate at a concentration of 8*10^5 cells/well on the day before the experiment. […]

The subject of test [4] is AMPK phosphorylation in C2C12 cell line. The test can be described thus: Western blotting of AMPK phosphorylation in differentiated C2C12 myotubes. Type of test: cell-based. The settings on record: 10 min treatment, tested at 20, 4 and 0.8 uM. The protocol:
as §1
C2C12 cells were plated in 12 wells. […] Then, the medium was replaced with a differentiation medium in which DMEM is supplemented with 2.5% horse serum and 1% penicillin/streptomycin. Thereafter, differentiation was performed for 5-7 days, replacing the medium with a new differentiation medium every day. The thus-obtained product was used for experiments.
as §2, with “The antibodies of AMPK, p-AMPK, p-AKT, p-ACC and GAPDH were diluted to 1:1000 or 1:2000 depending on the type thereof and imaging was performed with a LAS-4000 instrument.” left out

Square brackets hold non-standard residues; d marks the D form. Peptide text beside a SMILES is read from it. Nva = CCC[C@H](N)C(=O)O

T1 sequence (Q96A54 whole entry, looked up): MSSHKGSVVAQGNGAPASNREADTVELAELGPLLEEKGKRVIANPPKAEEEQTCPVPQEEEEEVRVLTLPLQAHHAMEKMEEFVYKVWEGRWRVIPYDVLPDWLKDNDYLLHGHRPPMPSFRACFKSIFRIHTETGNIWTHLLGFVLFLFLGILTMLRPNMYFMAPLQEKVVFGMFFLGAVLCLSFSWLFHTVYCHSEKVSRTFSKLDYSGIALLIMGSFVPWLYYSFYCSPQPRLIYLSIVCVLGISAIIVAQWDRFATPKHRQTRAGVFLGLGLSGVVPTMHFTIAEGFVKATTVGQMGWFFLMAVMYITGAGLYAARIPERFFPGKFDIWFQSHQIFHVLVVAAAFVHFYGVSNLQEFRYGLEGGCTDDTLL

Broadly, the Kd is the constant that tells how readily two partners part at equilibrium. Molecule `CC[C@H](C)[C@H](NC(=O)[C@H](CC(N)=O)NC(=O)[C@@H]1CCCN1C(=O)[C@H](Cc1c[nH]cn1)NC(=O)[C@H](Cc1ccc(O)cc1)NC(=O)[C@H](C)NC(=O)[C@H](Cc1ccccc1)NC(=O)[C@H](CO)NC(=O)[C@@H](N)Cc1ccc(O)cc1)C(=O)N1CCC[C@H]1C(=O)NCC(=O)N[C@@H](CC(C)C)C(=O)N[C@@H](Cc1ccc(O)cc1)C(=O)N[C@@H](Cc1ccc(O)cc1)C(=O)N[C@@H](Cc1ccccc1)C(=O)O` [4-5, YSFAYHPNIPGLYYF (SEQ ID NO: 7)] (H-YSFAYHPNIPGLYYF-OH; N-terminus and C-terminus assumed) yielded a Kd in test [1] of 24.5 µM.
Regarding `CC[C@H](C)[C@H](NC(=O)[C@H](CC(N)=O)NC(=O)[C@@H]1CCCN1C(=O)[C@H](Cc1c[nH]cn1)NC(=O)[C@H](Cc1ccc(O)cc1)NC(=O)[C@H](C)NC(=O)[C@H](Cc1ccccc1)NC(=O)[C@H](Cc1ccc(O)cc1)NC(=O)[C@@H](N)Cc1ccc(O)cc1)C(=O)N1CCC[C@H]1C(=O)NCC(=O)N[C@@H](CC(C)C)C(=O)N[C@@H](Cc1ccc(O)cc1)C(=O)N[C@@H](Cc1ccc(O)cc1)C(=O)N[C@@H](Cc1ccccc1)C(=O)O` [3-1, YYFAYHPNIPGLYYF (SEQ ID NO: 1 where Xaa1 and Xaa13 each is tyrosine)] (H-YYFAYHPNIPGLYYF-OH; N-terminus and C-terminus assumed), in test [1], the Kd was found to be 16 µM.
On to `CCC[C@H](NC(=O)[C@@H]1CCCN1C(=O)[C@@H](NC(=O)[C@H](N)CC(N)=O)[C@@H](C)CC)C(=O)N[C@@H](CC(C)C)C(=O)N[C@@H](Cc1ccc(O)cc1)C(=O)N[C@H](CO)C(=O)N[C@@H](Cc1ccccc1)C(=O)N[C@@H](C)C(=O)N[C@H](CO)C(N)=O` [ADP355, H-DAsn-Ile-Pro-Nva-Leu-Tyr-DSer-Phe-Ala-DSer-NH2] (H-[dN]IP[Nva]LY[dS]FA[dS]-NH2), for which the Kd in test [2] was no less than 100 µM. The “concentration from which AMPK was phosphorylated” value came out at 20 µM in test [3] and 4 µM in test [4].
`CC[C@H](C)[C@H](NC(=O)[C@H](CC(N)=O)NC(=O)[C@@H]1CCCN1C(=O)[C@H](Cc1c[nH]cn1)NC(=O)[C@H](Cc1ccc(O)cc1)NC(=O)[C@H](C)NC(=O)[C@H](Cc1ccccc1)NC(=O)[C@H](Cc1ccc(O)cc1)NC(=O)[C@@H](N)Cc1c[nH]c2ccccc12)C(=O)N1CCC[C@H]1C(=O)NCC(=O)N[C@@H](CC(C)C)C(=O)N[C@@H](Cc1c[nH]c2ccccc12)C(=O)N[C@@H](Cc1ccc(O)cc1)C(=O)N[C@@H](Cc1ccccc1)C(=O)O` [peptide 4-3, Trp-Tyr-Phe-Ala-Tyr-His-Pro-Asn-Ile-Pro-Gly-Leu-Trp-Tyr-Phe] (H-WYFAYHPNIPGLWYF-OH): the Kd in test [2] fell in the range of 6 to 10 µM.
Still for that read-out and setting: with `CC[C@H](C)[C@H](NC(=O)[C@H](CC(N)=O)NC(=O)[C@@H]1CCCN1C(=O)[C@H](Cc1c[nH]cn1)NC(=O)[C@H](Cc1ccc(O)cc1)NC(=O)[C@H](C)NC(=O)[C@H](Cc1ccccc1)NC(=O)[C@H](Cc1ccc(O)cc1)NC(=O)[C@@H](N)Cc1ccc(O)cc1)C(=O)N1CCC[C@H]1C(=O)NCC(=O)N[C@@H](CC(C)C)C(=O)N[C@@H](Cc1ccc(O)cc1)C(=O)N[C@@H](Cc1ccc(O)cc1)C(=O)N[C@@H](Cc1ccccc1)C(=O)O` [peptide 3-1, Tyr-Tyr-Phe-Ala-Tyr-His-Pro-Asn-Ile-Pro-Gly-Leu-Tyr-Tyr-Phe] (H-YYFAYHPNIPGLYYF-OH) the figure was no more than 16 µM; with `CC[C@H](C)[C@H](NC(=O)[C@H](CC(N)=O)NC(=O)[C@@H]1CCCN1C(=O)[C@H](Cc1c[nH]cn1)NC(=O)[C@H](Cc1ccc(O)cc1)NC(=O)[C@H](C)NC(=O)[C@H](Cc1ccccc1)NC(=O)[C@H](Cc1ccc(O)cc1)NC(=O)[C@@H](N)Cc1ccccc1)C(=O)N1CCC[C@H]1C(=O)NCC(=O)N[C@@H](CC(C)C)C(=O)N[C@@H](Cc1ccccc1)C(=O)N[C@@H](Cc1ccc(O)cc1)C(=O)N[C@@H](Cc1ccccc1)C(=O)O` [peptide 4-4, Phe-Tyr-Phe-Ala-Tyr-His-Pro-Asn-Ile-Pro-Gly-Leu-Phe-Tyr-Phe] (H-FYFAYHPNIPGLFYF-OH), 2 to 4.3 µM.

The values are drawn from patent US10561705B2, “Agonist peptide for adiponectin receptor” (priority 2016, dated 2020).
